This is an account of results in US20080064691A1, “Heterocyclic Amide Derivatives Which Possess Glycogen Phosphorylase Inhibitory Activity” (AstraZeneca AB, priority 2003, published 2008).

Each structure is given as a SMILES string.

For orientation: IC50 means the concentration that gives 50% inhibition.

Assay [1] deals with conscious dogs. Particulars: cited from earlier work.
Assay [2] has as its system hepatocytes. To be noted: cited from earlier work.
The subject of assay [3] is db/db and ob/ob mice. To be noted: db/db and ob/ob mice following treatment; cited from earlier work.
The target of assay [4] is T1, Human recombinant liver glycogen phosphorylase a (hrl GPα) (Homo sapiens, UniProt P06737).
T1 sequence (P06737 1-847): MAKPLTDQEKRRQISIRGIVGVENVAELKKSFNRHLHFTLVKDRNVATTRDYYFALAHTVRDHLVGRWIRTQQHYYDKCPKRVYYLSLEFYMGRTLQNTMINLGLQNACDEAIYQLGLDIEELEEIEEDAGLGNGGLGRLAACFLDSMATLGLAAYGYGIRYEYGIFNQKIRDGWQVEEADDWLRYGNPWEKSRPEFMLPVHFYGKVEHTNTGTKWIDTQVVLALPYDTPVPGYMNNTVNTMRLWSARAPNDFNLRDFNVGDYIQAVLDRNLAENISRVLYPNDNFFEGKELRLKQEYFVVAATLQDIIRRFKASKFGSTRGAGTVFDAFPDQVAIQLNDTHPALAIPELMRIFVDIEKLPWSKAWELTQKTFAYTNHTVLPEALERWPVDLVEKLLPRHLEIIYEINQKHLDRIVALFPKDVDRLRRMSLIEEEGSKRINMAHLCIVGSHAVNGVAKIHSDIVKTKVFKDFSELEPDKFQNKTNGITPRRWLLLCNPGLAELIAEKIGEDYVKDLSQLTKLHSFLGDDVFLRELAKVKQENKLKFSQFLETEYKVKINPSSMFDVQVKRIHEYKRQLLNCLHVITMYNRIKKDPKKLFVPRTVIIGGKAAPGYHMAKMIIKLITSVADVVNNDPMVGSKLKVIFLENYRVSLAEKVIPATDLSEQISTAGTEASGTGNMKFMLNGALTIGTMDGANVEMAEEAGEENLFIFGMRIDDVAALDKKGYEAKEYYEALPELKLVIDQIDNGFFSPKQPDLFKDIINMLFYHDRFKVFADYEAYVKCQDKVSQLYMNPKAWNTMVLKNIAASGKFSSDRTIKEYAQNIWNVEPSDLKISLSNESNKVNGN
Put plainly: glycogen phosphorylase inhibition, multienzyme coupled assay (glucose-1-phosphate production from glycogen). The assay is classed as biochemical. Particulars: hrl GPα 20 nM, 6 hours at 30° C. As to the method:
The activity of the compounds is determined by measuring the inhibitory effect of the compounds on glycogen degradation, the production of glucose-1-phosphate from glycogen is monitored by the multienzyme coupled assay, as described in EP 0 846 464 A2, general method of Pesce et al (Pesce, M A, Bodourian, S H, Harris, R C, and Nicholson, J F (1977) Clinical Chemistry 23, […]). The reactions were in 384 well microplate format in a volume of 50 μl. The change in fluorescence due to the conversion of the co-factor NAD to NADH is measured at 340 nm excitation, 465 nm emission in a Tecan Ultra Multifunctional Microplate Reader. The reaction is in 50 mM HEPES, 3.5 mM KH2PO4, 2.5 mM MgCl2, 2.5 mM ethylene glycol-bis(b-aminoethyl ether) N,N,N′,N′-tetraacetic acid, 100 mM KCl, 8 mM D-(+)-glucose pH7.2, containing 0.5 mM dithiothreitol, the assay buffer solution. Human recombinant liver glycogen phosphorylase a (hrl GPα) 20 nM is pre-incubated in assay buffer solution with 6.25 mM NAD, 1.25 mg type III glycogen at 1.25 mg ml^−1 the reagent buffer, for 30 minutes. […] The non-inhibited activity of GPα is measured in the presence of 10 μl 5% DMSO in assay buffer solution and maximum inhibition measured in the presence of 5 mgs ml^−1 N-ethylmaleimide. […] Relative Fluoresence Units (RFUs) are measured at 340 nm excitation, 465 nm emission . […]

For the molecule `CCN1C(C)=C(C(=O)OC(C)C)C(c2ccccc2Cl)C2=C1COC2=O` (stereo not drawn) [Bay R3401], in assay [1], the “arterial plasma glucose following a glucagon challenge” value is recorded as “reduced significantly” and the “hepatic glucose output following a glucagon challenge” value is “reduced significantly”.
As for `CN(C)C(=O)[C@H](O)[C@H](Cc1ccccc1)NC(=O)c1cc2cc(Cl)ccc2[nH]1` [CP91149], in assay [2], the glucagon stimulated glycogenolysis entry is reported as “reduce” and the glucose output result is “reduce”. Moreover, the plasma glucose concentration entry in assay [3] is “reduced, in a dose related manner”.
In the case of `O=C(N[C@@H](Cc1ccc(F)cc1)C(=O)N1CCC(O)CC1)c1cc2cc(Cl)ccc2[nH]1` [CP320626], in assay [2], the glucagon stimulated glycogenolysis entry is “reduce” and the glucose output result is “reduce”. The plasma glucose concentration result in assay [3] is given as “reduced, in a dose related manner”.
Consider `O=C(N[C@@H]1Cc2ccccc2[C@H]1CO)c1cc2cc(Cl)sc2[nH]1` [Example 5, 2-Chloro-N-[(1R,2R)-1-(hydroxymethyl)-2,3-dihydro-1H-inden-2-yl]-6H-thieno[2,3-b]pyrrole-5-carboxamide], for which, in assay [4], the IC50 came to 493 nM.
